Results as given in patent US6914045B2, “Glycopeptide antibiotics” (Wyeth Holdings Corporation, priority 2001, dated 2005).
Converted amounts (≈) assume the structure as drawn.

Tests used:
Assay in all cases: in vitro antibacterial evaluation, MIC by broth dilution
Assay type in all cases: cell-based
Enterococcus sp. = settings: broth dilution, 18 hours at 35° C.
In short: (§1)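 MIC, the lowest antibiotic concentration preventing growth, was read across 64-0.06 μg/mL with 5×10^5 CFU/mL inoculum. Method followed NCCLS M7-A2 broth dilution using Mueller-Hinton II; Gram-positive strains covered recent methicillin-, penicillin- and/or vancomycin-resistant clinical isolates.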

Escherichia coli = settings: 18 hours at 35° C.
In short: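 Read-out: the lowest concentration at which the test strain fails to grow. Serial dilutions (64-0.06 μg/mL) in Muller-Hinton II […], 5×10^5 CFU/mL inoculum, NCCLS M7-A2 procedure.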

Staphylococcus sp. = settings: broth dilution, 18 hours at 35° C.
In short: as §1

Streptococcus sp. = settings: broth dilution, 18 hours at 35° C.
In short: as §1

CC(C)CC(=O)OC1C(O)C(CO)OC(OC2C(CO)OC(Oc3ccc(CC4NC(=O)C(C(C)c5cccs5)NC(=O)CNC(=O)C(CO)NC(=O)C(C(O)C5CNC(=N)N5C5OC(CO)C(O)C(O)C5O)NC(=O)C(C(O)C5CNC(=N)N5)NC4=O)cc3)C(O)C2O)C1O (stereo not drawn) [Example 265b, Cyclo[3-(2-thienyl)-2-aminobutanoyl-O-[4-O-[3-O-(3-methylbutanoyl)hexopyranosyl]hexoipyranosyl]tyrosyl-3-(2-iminoimidazolidin-4-yl)seryl-3-(3-hexolpyranosyl-2-iminoimidazolidin-4-yl)serylserylglycyl]]
MIC Enterococcus avium (GC 4558) (Enterococcus sp.; Enterococcus avium (GC 4558)): 64 µg/mL (≈ 46.2 µM) | MIC Enterococcus faecalis (ATCC 29212) (Enterococcus sp.; Enterococcus faecalis (ATCC 29212)): 64 µg/mL (≈ 46.2 µM) | MIC Enterococcus faecalis (GC 4553) (Enterococcus sp.; Enterococcus faecalis (GC 4553)): 64 µg/mL (≈ 46.2 µM) | MIC Enterococcus faecalis (GC 4554) (Enterococcus sp.; Enterococcus faecalis (GC 4554)): >64 µg/mL | MIC Enterococcus faecium (GC 2243) (Enterococcus sp.; Enterococcus faecium (GC 2243)): 64 µg/mL (≈ 46.2 µM) | MIC Enterococcus faecium (GC 4556) (Enterococcus sp.; Enterococcus faecium (GC 4556)): 64 µg/mL (≈ 46.2 µM) | MIC Enterococcus faecium (GC 4557) (Enterococcus sp.; Enterococcus faecium (GC 4557)): 8 µg/mL (≈ 5.77 µM) | MIC Enterococcus faecalis (ATCC 29212) (Enterococcus sp.; strain ATCC 29212): 64 µg/mL (≈ 46.2 µM) | MIC Enterococcus faecalis (GC 2242) (Enterococcus sp.; strain GC 2242): 64 µg/mL (≈ 46.2 µM) | MIC Enterococcus faecium (GC 2243) (Enterococcus sp.; strain GC 2243): 64 µg/mL (≈ 46.2 µM) | MIC Enterococcus faecalis (GC 4552) (Enterococcus sp.; strain GC 4552): 64 µg/mL (≈ 46.2 µM) | MIC Enterococcus faecalis (GC 4553) (Enterococcus sp.; strain GC 4553): 64 µg/mL (≈ 46.2 µM) | MIC Enterococcus faecalis (GC 4554) (Enterococcus sp.; strain GC 4554): >64 µg/mL | MIC Enterococcus faecium (GC 4556) (Enterococcus sp.; strain GC 4556): 64 µg/mL (≈ 46.2 µM) | MIC Enterococcus faecium (GC 4557) (Enterococcus sp.; strain GC 4557): 8 µg/mL (≈ 5.77 µM) | MIC Enterococcus avium (GC 4558) (Enterococcus sp.; strain GC 4558): 64 µg/mL (≈ 46.2 µM) | MIC Escherichia coli (ATCC 25922) (Escherichia coli; Escherichia coli (ATCC 25922)): >64 µg/mL | MIC Escherichia coli (GC 4559) (Escherichia coli; Escherichia coli (GC 4559)): 64 µg/mL (≈ 46.2 µM) | MIC Escherichia coli (GC 4560) (Escherichia coli; Escherichia coli (GC 4560)): 4 µg/mL (≈ 2.89 µM) | MIC Coagulase Negative Staphylococcus (GC 4547) (Staphylococcus sp.): 8 µg/mL (≈ 5.77 µM) | MIC Coagulase Negative Staphylococcus (GC 4548) (Staphylococcus sp.): 4 µg/mL (≈ 2.89 µM) | MIC Coagulase Negative Staphylococcus (GC 4549) (Staphylococcus sp.): 4 µg/mL (≈ 2.89 µM) | MIC Coagulase Negative Staphylococcus (GC 4551) (Staphylococcus sp.): 8 µg/mL (≈ 5.77 µM) | MIC Staphylococcus aureus (ATCC 29213) (Staphylococcus sp.): 16 µg/mL (≈ 11.5 µM) | MIC Staphylococcus aureus (GC 1131) (Staphylococcus sp.): 32 µg/mL (≈ 23.1 µM) | MIC Staphylococcus aureus (GC 4541) (Staphylococcus sp.): 8 µg/mL (≈ 5.77 µM) | MIC Staphylococcus aureus (GC 4542) (Staphylococcus sp.): 8 µg/mL (≈ 5.77 µM) | MIC Staphylococcus aureus (GC 4544) (Staphylococcus sp.): 8 µg/mL (≈ 5.77 µM) | MIC Staphylococcus aureus (GC 4545) (Staphylococcus sp.): 8 µg/mL (≈ 5.77 µM) | MIC Staphylococcus aureus-SMITH (GC 4543) (Staphylococcus sp.): 8 µg/mL (≈ 5.77 µM) | MIC Staphylococcus haemolyticus (GC 4546) (Staphylococcus sp.): 8 µg/mL (≈ 5.77 µM) | MIC Staphylococcus aureus (ATCC 29213) (Staphylococcus sp.; strain ATCC 29213): 16 µg/mL (≈ 11.5 µM) | MIC Staphylococcus aureus (GC 1131) (Staphylococcus sp.; strain GC 1131): 32 µg/mL (≈ 23.1 µM) | MIC Staphylococcus aureus (GC 4541) (Staphylococcus sp.; strain GC 4541): 8 µg/mL (≈ 5.77 µM) | MIC Staphylococcus aureus (GC 4542) (Staphylococcus sp.; strain GC 4542): 8 µg/mL (≈ 5.77 µM) | MIC Staphylococcus aureus (GC 4544) (Staphylococcus sp.; strain GC 4544): 8 µg/mL (≈ 5.77 µM) | MIC Staphylococcus aureus (GC 4545) (Staphylococcus sp.; strain GC 4545): 8 µg/mL (≈ 5.77 µM) | MIC Staphylococcus haemolyticus (GC 4546) (Staphylococcus sp.; strain GC 4546): 8 µg/mL (≈ 5.77 µM) | MIC Coagulase Negative Staphylococcus (GC 4547) (Staphylococcus sp.; strain GC 4547): 8 µg/mL (≈ 5.77 µM) | MIC Coagulase Negative Staphylococcus (GC 4548) (Staphylococcus sp.; strain GC 4548): 4 µg/mL (≈ 2.89 µM) | MIC Coagulase Negative Staphylococcus (GC 4549) (Staphylococcus sp.; strain GC 4549): 4 µg/mL (≈ 2.89 µM) | MIC Coagulase Negative Staphylococcus (GC 4551) (Staphylococcus sp.; strain GC 4551): 8 µg/mL (≈ 5.77 µM) | MIC Staphylococcus aureus-SMITH (GC 4543) (Staphylococcus sp.; strain SMITH GC 4543): 8 µg/mL (≈ 5.77 µM) | MIC Streptococcus agalactiae (GC 4564) (Streptococcus sp.; strain GC 4564): 8 µg/mL (≈ 5.77 µM) | MIC Streptococcus pyogenes (ID-3187) (Streptococcus sp.; strain ID-3187): 4 µg/mL (≈ 2.89 µM)
